Test results published in BindingDB's records for doi:10.7270/Q27W69N8 (Srmlsc, 2009).
pIC50: −log10 of the molar value. Counter-ions that a name gives are not always drawn.

The molecules below were run against T1, M17 leucyl aminopeptidase (Plasmodium falciparum (isolate 3D7), UniProt Q8IL11) (assay: P. falciparum M17LAP inhibitors, primary screen, biochemical, fluorogenic H-Leu-NHMec substrate, 1536-well (AID 1619)).
T1 sequence (Q8IL11 whole entry): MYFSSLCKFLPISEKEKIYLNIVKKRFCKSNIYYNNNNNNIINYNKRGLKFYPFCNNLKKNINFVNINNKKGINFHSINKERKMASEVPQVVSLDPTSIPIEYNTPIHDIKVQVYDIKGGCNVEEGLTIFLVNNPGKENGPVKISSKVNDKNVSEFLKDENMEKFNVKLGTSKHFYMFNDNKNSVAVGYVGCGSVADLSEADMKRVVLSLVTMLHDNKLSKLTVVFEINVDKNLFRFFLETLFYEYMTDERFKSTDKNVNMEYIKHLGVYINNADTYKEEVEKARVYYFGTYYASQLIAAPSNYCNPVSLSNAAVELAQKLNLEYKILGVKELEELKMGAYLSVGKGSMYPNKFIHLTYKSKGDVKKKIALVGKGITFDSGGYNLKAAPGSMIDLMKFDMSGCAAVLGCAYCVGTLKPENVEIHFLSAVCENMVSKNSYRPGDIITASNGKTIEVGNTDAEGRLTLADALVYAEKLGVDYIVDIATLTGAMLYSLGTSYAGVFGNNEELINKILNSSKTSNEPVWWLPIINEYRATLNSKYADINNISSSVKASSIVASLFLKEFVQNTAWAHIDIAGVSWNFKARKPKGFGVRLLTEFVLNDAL
Molecule `COc1ccccc1C=CC=NNC(=O)CCc1c(C)[nH][nH]c1=O` [3-(3-Methyl-5-oxo-4,5-dihydro-1H-pyrazol-4-yl)-propionic acid [(E)-3-(2-methoxy-phenyl)-prop-2-en-(E)-ylidene]-hydrazide] has a pIC50 of 4.24.
In the case of `Cc1[nH][nH]c(=O)c1CCC(=O)NN=Cc1cccc(Cl)c1` [N'-[(1Z)-(3-chlorophenyl)methylene]-3-(3-methyl-5-oxo-4,5-dihydro-1H-pyrazol-4-yl)propanohydrazide], the pIC50 was 4.68.
In the case of `Cc1c(C)c(O)c(C=CCCC#CCCCC#CCO)c(C)c1O` [docebenone], the pIC50 was 4.27.
Work on `COc1cc(CN=Nc2ccc(Cl)c(C(=O)O)c2)ccc1OC(=O)c1cccs1` yielded a pIC50 of 4.26.
For `CC(=NNC(=O)CCc1c(C)[nH][nH]c1=O)c1ccccc1` [3-(3-methyl-5-oxidanylidene-1,4-dihydropyrazol-4-yl)-N-(1-phenylethylideneamino)propanamide], the pIC50 was 4.44.
With `C/C(=C\c1ccco1)C1c2c(-c3ccccc3)n[nH]c2OC(=N)C1C#N` (centres undefined) [6-amino-4-[(E)-1-(furan-2-yl)prop-1-en-2-yl]-3-phenyl-2,4-dihydropyrano[2,3-c]pyrazole-5-carbonitrile] the pIC50 was 4.08.
Molecule `CC(=NNC(=O)Cc1c(C)[nH][nH]c1=O)c1cccs1` [SMR000305285] has a pIC50 of 5.45.
Molecule `CCCOc1ccc(-n2c(O)cc(SCCN)c2O)cc1` [3-(2-aminoethylthio)-1-(4-propoxyphenyl)pyrrolidine-2,5-dione;hydrochloride] has a pIC50 of 4.92.
With `Cc1cc(C=C2C(=O)NC(=O)N(c3ccc(F)cc3)C2=O)c(C)n1-c1ccc(C(=O)O)cc1` [SMR000273525] the pIC50 was 3.83.
In the case of `CC(CC1CC(C)(C)OC1=O)N=Nc1nc(-c2ccccc2)cs1` (centres undefined) [SMR000220752], the pIC50 was 4.28.
`COc1cccc(C=NNC(=O)Cc2c(C)[nH][nH]c2=O)c1O` [N'-[(E)-(5-methoxy-6-oxocyclohexa-2,4-dien-1-ylidene)methyl]-2-(3-methyl-5-oxo-1,4-dihydropyrazol-4-yl)acetohydrazide] was tested, and the pIC50 was 4.04.
With `Cc1[nH][nH]c(=O)c1CCC(=O)NN=CC(Br)=Cc1ccccc1` [N'-(2-bromo-3-phenyl-2-propen-1-ylidene)-3-(3-methyl-5-oxo-4,5-dihydro-1H-pyrazol-4-yl)propanohydrazide] the pIC50 was 5.10.
`Cc1ccc(-c2n[nH]c3c2C(c2ccsc2)C(C#N)C(=N)O3)cc1` (centres undefined) [SMR000143666] gave a pIC50 of 4.95.
Work on `Cc1ccc(-c2n[nH]c3c2C(C)C(C#N)C(=N)O3)cc1` (centres undefined) [6-amino-4-methyl-3-(4-methylphenyl)-2,4-dihydropyrano[2,3-c]pyrazole-5-carbonitrile] yielded a pIC50 of 4.79.
`CC(C=NNC(=O)Cc1c(C)[nH][nH]c1=O)=Cc1ccccc1` [2-(3-methyl-5-oxidanylidene-1,4-dihydropyrazol-4-yl)-N-[[(E)-2-methyl-3-phenyl-prop-2-enylidene]amino]ethanamide] gave a pIC50 of 4.28.
Molecule `O=C1N=c2ccccc2=C1NNc1ccc(C(=O)O)cc1` [4-[2-(2-oxidanylideneindol-3-yl)hydrazinyl]benzoic acid] has a pIC50 of 4.07.
For `Cc1[nH][nH]c(=O)c1CCC(=O)NN=CC=Cc1ccccc1`, the pIC50 was 4.29.
`Cc1ccc(S(=O)(=O)Oc2cccc(-n3c(O)c4c(c3O)CC=CC4)c2)cc1` [SMR000197106] showed a pIC50 of 4.30.
Work on `CC(CCC1CC(C)OC1=O)N=Nc1nc(-c2ccccc2)cs1` (centres undefined) [SMR000204131] yielded a pIC50 of 4.51.
`COc1ccc(CN=Nc2ccc(C(=O)O)cc2)cc1Br` [4-[2-[(3-bromo-4-methoxyphenyl)methylidene]hydrazinyl]benzoic acid] showed a pIC50 of 4.63.
For `O=C(O)c1cc(N=NCc2ccc(OCc3ccccc3)cc2)ccc1Cl` [SMR000364895], the pIC50 was 4.70.
With `CC(C)CC1c2c(-c3ccccc3)n[nH]c2OC(=N)C1C#N` (centres undefined) [MLS000121961] the pIC50 was 4.47.
`O=C1c2ccccc2C(=O)C1C1=NC(C(=O)O)c2c1c(O)n(-c1ccccc1)c2O` (centres undefined) [SMR000168620] showed a pIC50 of 4.17.
`O=C(CSc1n[nH]c(=O)[nH]c1=O)NN=Cc1ccccc1O` [2-[(3,5-dioxo-2,3,4,5-tetrahydro-1,2,4-triazin-6-yl)thio]-N'-(2-hydroxybenzylidene)acetohydrazide] showed a pIC50 of 3.89.
